Data from patent US7578968B1, “Microbiological control in oil or gas field operations” (Albemarle Corporation, priority 2002, dated 2009).

Tests used:
Assay type in all cases: physicochemical
[1] = Comparative study of oxidation reduction potentials (ORP) and halogen residuals in cooling tower water
Procedure: The oxidants studied consisted of WELLGUARD 909 biocide, STABREX biocide (stabilized NaBr+NaOCl), bleach (NaOCl), and activated sodium bromide (NaOCl and NaBr).
Stock solutions of the biocides were prepared at 1000 ppm halogen residual concentration (as Cl2) in brown glass bottles using deionized water for dilution. Solution activities were confirmed using the DPD method and a Hach Co. (Loveland, Colo.) DR/2000 spectrophotometer.
Aliquots of the stock solutions above were added to 1000 mL of cooling tower water that had been pulled from a cooling tower. A 1000 mL beaker was charged with 1000 mL of cooling tower water and stirred while measuring ORP with a Brinkmann Metrohm 716 DMS Titrino automatic titrator. It took about 45 minutes for the sample to equilibrate—the ORP reading would gradually decline to a reading of about 300 mV. The sample was deemed to have equilibrated when the change in the ORP reading was less than or equal to 1 unit/minute. At this point, 0.5 g of stock solution (nominal halogen residual=0.5 ppm) was added and the mixture allowed to equilibrate once again. A sample was pulled to determine free and total halogen residuals and then 0.5 g additional stock solution was added and the process repeated. The following aliquots were added during the experiment: 0.5 g, 1.0 g, 2.0 g, 3.0 g, 4.0 g, 6.0 g, 8.0 g, 10.0 g.

[2] = Reversion of AMP to orthophosphate by oxidizing biocides; settings: for Phosphate (orthophosphate from AMP): oxidant 10 ppm as Cl2, pH 9.1, 23° C.
Procedure: (§1) The oxidants studied consisted of WELLGUARD 909 biocide, bleach (NaOCl), and activated sodium bromide (NaOCl and NaBr). The WELLGUARD 909 biocide and bleach were added directly. Activated sodium bromide was prepared in situ by introducing 20 ppm bromide ion to the stock solution followed by addition of bleach. The phosphonates used in this work consisted of AMP (aminomethylene phosphonic acid), HEDP (hydroxyethylidene diphosphonic acid), and PBTC (phosphonobutanetricarboxylic acid). These materials were commercial samples (Mayoquest 1320, 1500, and 2100, respectively) obtained from Callaway Chemical Co. (Smyrna, Ga.).
(§2) Solutions consisting of 5 ppm scale inhibitor (as active phosphonate) in the presence of 10 ppm oxidant (as Cl2) were prepared as follows. To 900 mL deionized water were added appropriate stock solutions containing phosphonate, alkalinity (NaHCO3), and calcium hardness (CaCl2). The pH was adjusted to 9.1 with 5% aq. NaOH and diluted up to 1 L in a dark amber bottle. A dose of oxidant was added to achieve a residual of 10 ppm. The solutions were then periodically monitored for phosphonate reversion by determining the reversion to orthophosphate (Hach method 490). The oxidant residual was also periodically monitored using the DPD method (Hach method 80). All of this work was performed at room temperature (23° C.). The initial active phosphonate content was confirmed by conversion to orthophosphate via UV/persulfate oxidation followed by a conventional phosphate analysis (Hach method 501). A conversion factor was applied to the phosphate measurement to determine the initial amount of active phosphonate present as follows: AMP, 1.05; HEDP, 1.085; PBTC, 2.85.

[3] = Reversion of HEDP to orthophosphate by oxidizing biocides; settings: for Phosphate (orthophosphate from HEDP): oxidant 10 ppm as Cl2, pH 9.1, 23° C.
Procedure: as §1, §2

[4] = Reversion of PBTC to orthophosphate by oxidizing biocides; settings: for Phosphate (orthophosphate from PBTC): oxidant 10 ppm as Cl2, pH 9.1, 23° C.
Procedure: as §1, §2

[5] = nominal free/total ppm (as Cl2): STABREX 0.49/0.51, WELLGUARD 909 0.42/0.52, Bleach 0.50, Activated NaBr 0.48/0.52
[6] = nominal free/total ppm: STABREX 0.98/1.04, WELLGUARD 909 0.85/1.04, Bleach 1.00, Activated NaBr 0.97/1.05
[7] = nominal free/total ppm: STABREX 2.00/2.11, WELLGUARD 909 1.72/2.12, Bleach 2.04, Activated NaBr 1.97/2.14
[8] = nominal free/total ppm: STABREX 3.04/3.20, WELLGUARD 909 2.62/3.22, Bleach 3.09, Activated NaBr 2.99/3.25
[9] = nominal free/total ppm: STABREX 4.09/4.32, WELLGUARD 909 3.53/4.20, Bleach 4.17, Activated NaBr 4.03/4.39
[10] = nominal free/total ppm: STABREX 6.26/6.60, WELLGUARD 909 5.40/6.63, Bleach 6.37, Activated NaBr 6.17/6.71
[11] = nominal free/total ppm: STABREX 8.47/8.94, WELLGUARD 909 7.31/8.98, Bleach 8.63, Activated NaBr 8.35/9.08
[12] = nominal free/total ppm: STABREX 10.74/11.33, WELLGUARD 909 9.26/11.38, Bleach 10.93, Activated NaBr 10.58/11.51

[Na+].[O-]Cl [Bleach, NaOCl]
loss in biocide residual ([1]; conditions of Table 3): significant loss of residual during initial stages of biocide addition | Actual Residual, ppm Free [1, 5]: 0.13 ppm | Actual Residual, ppm Total [1, 5]: 0.34 ppm | ORP Reading, mV [1, 5]: 500 mV | Actual Residual, ppm Free [1, 6]: 0.29 ppm | Actual Residual, ppm Total [1, 6]: 0.48 ppm | ORP Reading, mV [1, 6]: 620 mV | Actual Residual, ppm Free [1, 7]: 1.12 ppm | Actual Residual, ppm Total [1, 7]: 1.29 ppm | ORP Reading, mV [1, 7]: 659 mV | Actual Residual, ppm Free [1, 8]: 1.88 ppm | Actual Residual, ppm Total [1, 8]: 2.08 ppm | ORP Reading, mV [1, 8]: 672 mV | Actual Residual, ppm Free [1, 9]: 2.98 ppm | Actual Residual, ppm Total [1, 9]: 3.43 ppm | ORP Reading, mV [1, 9]: 678 mV | Actual Residual, ppm Free [1, 10]: 5.24 ppm | Actual Residual, ppm Total [1, 10]: 5.68 ppm | ORP Reading, mV [1, 10]: 683 mV | Actual Residual, ppm Free [1, 11]: 7.68 ppm | Actual Residual, ppm Total [1, 11]: 8.16 ppm | ORP Reading, mV [1, 11]: 685 mV | Actual Residual, ppm Free [1, 12]: 10.08 ppm | Actual Residual, ppm Total [1, 12]: 10.78 ppm | ORP Reading, mV [1, 12]: 689 mV | Cl2 (oxidant residual) ([2]; AMP 5 ppm, initial oxidant 10 ppm as Cl2, pH 9.1, 23° C., 460 minutes): 9.4 ppm | Phosphate (orthophosphate from AMP) ([2]; AMP 5 ppm, 20 minutes): 0.35 ppm | Phosphate (orthophosphate from AMP) ([2]; AMP 5 ppm, 40 minutes): 0.7 ppm | Phosphate (orthophosphate from AMP) ([2]; AMP 5 ppm, 70 minutes): 0.53 ppm | Phosphate (orthophosphate from AMP) ([2]; AMP 5 ppm, 100 minutes): 0.75 ppm | Phosphate (orthophosphate from AMP) ([2]; AMP 5 ppm, 130 minutes): 0.8 ppm | Phosphate (orthophosphate from AMP) ([2]; AMP 5 ppm, 190 minutes): 0.77 ppm | Phosphate (orthophosphate from AMP) ([2]; AMP 5 ppm, 220 minutes): 0.59 ppm | Phosphate (orthophosphate from AMP) ([2]; AMP 5 ppm, 250 minutes): 0.64 ppm | Phosphate (orthophosphate from AMP) ([2]; AMP 5 ppm, 280 minutes): 0.83 ppm | Phosphate (orthophosphate from AMP) ([2]; AMP 5 ppm, 310 minutes): 0.82 ppm | Phosphate (orthophosphate from AMP) ([2]; AMP 5 ppm, 340 minutes): 0.8 ppm | Phosphate (orthophosphate from AMP) ([2]; AMP 5 ppm, 370 minutes): 0.81 ppm | Phosphate (orthophosphate from AMP) ([2]; AMP 5 ppm, 400 minutes): 0.79 ppm | Phosphate (orthophosphate from AMP) ([2]; AMP 5 ppm, 520 minutes): 0.97 ppm | Phosphate (orthophosphate from AMP) ([2]; AMP 5 ppm, 1360 minutes): 0.91 ppm | averaged amounts of phosphonate reversion ([2]; AMP, Table 4 averages): 18.7% | Phosphate, average ([2]; AMP, average 100-1360 minutes, maximum liberable phosphate: WELLGUARD 909 4.58, Activated NaBr 4.18, Bleach 4.22 ppm): 0.79 ppm | Cl2 (oxidant residual) ([3]; HEDP 5 ppm, initial oxidant 10 ppm as Cl2, pH 9.1, 23° C., 400 minutes): 10.6 ppm | Phosphate (orthophosphate from HEDP) ([3]; HEDP 5 ppm, 20 minutes): 0 ppm | Phosphate (orthophosphate from HEDP) ([3]; HEDP 5 ppm, 40 minutes): 0 ppm | Phosphate (orthophosphate from HEDP) ([3]; HEDP 5 ppm, 70 minutes): 0.2 ppm | Phosphate (orthophosphate from HEDP) ([3]; HEDP 5 ppm, 100 minutes): 0.25 ppm | Phosphate (orthophosphate from HEDP) ([3]; HEDP 5 ppm, 130 minutes): 0.31 ppm | Phosphate (orthophosphate from HEDP) ([3]; HEDP 5 ppm, 190 minutes): 0.61 ppm | Phosphate (orthophosphate from HEDP) ([3]; HEDP 5 ppm, 220 minutes): 0.65 ppm | Phosphate (orthophosphate from HEDP) ([3]; HEDP 5 ppm, 250 minutes): 0.39 ppm | Phosphate (orthophosphate from HEDP) ([3]; HEDP 5 ppm, 280 minutes): 0.41 ppm | Phosphate (orthophosphate from HEDP) ([3]; HEDP 5 ppm, 310 minutes): 0.58 ppm | Phosphate (orthophosphate from HEDP) ([3]; HEDP 5 ppm, 340 minutes): 0.65 ppm | Phosphate (orthophosphate from HEDP) ([3]; HEDP 5 ppm, 370 minutes): 0.84 ppm | Phosphate (orthophosphate from HEDP) ([3]; HEDP 5 ppm, 400 minutes): 0.65 ppm | Phosphate (orthophosphate from HEDP) ([3]; HEDP 5 ppm, 460 minutes): 0.95 ppm | Phosphate (orthophosphate from HEDP) ([3]; HEDP 5 ppm, 520 minutes, maximum liberable phosphate: WELLGUARD 909 4.20, Activated NaBr 4.40, Bleach 4.80 ppm): 0.94 ppm | relative amounts of reversion ([3]; HEDP, after 520 minutes): 19.6% | residual oxidant (as Cl2) ([4]; PBTC 5 ppm, initial oxidant 10 ppm as Cl2, pH 9.1, 23° C., 390 minutes (second 390 line)): 9.5 ppm | Phosphate (orthophosphate from PBTC) ([4]; PBTC 5 ppm, 30 minutes): 0 ppm | Phosphate (orthophosphate from PBTC) ([4]; PBTC 5 ppm, 60 minutes): 0 ppm | Phosphate (orthophosphate from PBTC) ([4]; PBTC 5 ppm, 90 minutes): 0 ppm | Phosphate (orthophosphate from PBTC) ([4]; PBTC 5 ppm, 120 minutes): 0 ppm | Phosphate (orthophosphate from PBTC) ([4]; PBTC 5 ppm, 150 minutes): 0 ppm | Phosphate (orthophosphate from PBTC) ([4]; PBTC 5 ppm, 180 minutes): 0 ppm | Phosphate (orthophosphate from PBTC) ([4]; PBTC 5 ppm, 210 minutes): 0.12 ppm | Phosphate (orthophosphate from PBTC) ([4]; PBTC 5 ppm, 270 minutes): 0.16 ppm | Phosphate (orthophosphate from PBTC) ([4]; PBTC 5 ppm, 330 minutes): 0.05 ppm | Phosphate (orthophosphate from PBTC) ([4]; PBTC 5 ppm, 360 minutes): 0.02 ppm | Phosphate (orthophosphate from PBTC) ([4]; PBTC 5 ppm, 390 minutes (first 390 line)): 0.02 ppm | Phosphate (orthophosphate from PBTC) ([4]; PBTC 5 ppm, 1360 minutes): 0.08 ppm | average amounts of phosphonate reversion ([4]; PBTC, after 3½ hours contact and beyond): 5.2% | Phosphate, average ([4]; PBTC, average 210-1360 minutes, maximum liberable phosphate: WELLGUARD 909 1.72, Activated NaBr 1.82, Bleach 1.44 ppm): 0.075 ppm
